Converted amounts (≈) assume the structure as drawn. Like-named read-outs stand apart in the source and are kept apart here. Marks after values point to notes of the source that are not given here.
How the values were obtained:
[1] = system: Plasmodium falciparum 3D7A (sensitive); test: [3H]hypoxanthine incorporation antimalarial assay, strain 3D7A; assay type: cell-based; settings: 72 h of incubation, N = 3
Experimental: (§1) The activity of the test compounds against P. falciparum in vitro was determined using the tritiated hypoxanthine incorporation assay of Desjardins et al. and additionally modified by Milhous and Chulay (Chulay, Haynes, & Diggs, [1983]; Milhous, Weatherly, Bowdre, & Desjardins, [1985]).
(§2) Compounds were dissolved in DMSO and subsequently diluted in the culture medium (RPMI 1640) supplemented with 10% v/v human plasma. Serial 1:2 drug dilutions were prepared in triplicate in microtitre plates. Culture medium supplemented with 10% v/v human plasma and type A Rhesus positive human erythrocytes infected with P. falciparum strains was added to yield a haematocrit of 3% and a parasitaemia of 0.25–0.55%. The plates were incubated at 37°C in a modular incubator flushed with a mixture of 5% oxygen, 3% carbon dioxide, and 92% nitrogen for 48 h, and then [^3H]hypoxanthine was added to give a final concentration of 12.5–16 μCi·ml^−1. After incubation for additional 24 h, particulate matter was harvested on fibreglass strips and hypoxanthine incorporation determined by scintillation spectrophotometry. […] Delayed death experiments were performed by this standard method but extending the incubation time with the drug up to 96 h.

[2] = system: Plasmodium falciparum Dd2 (CQ,Q,PY,S); test: microbe, parasite or virus in culture; assay type: cell-based; settings: for Delayed death phenotype: Dd2 and Dd2(AZ^R), 48 versus 96 h; for IC50: Plasmodium falciparum
Experimental: as §1, §2

[3] = system: Plasmodium falciparum V1/S (CQ,PY); test: microbe, parasite or virus in culture; assay type: cell-based; settings: 72 h, read-out: IC50 V1/S (CQ,PY)
Experimental: as §1, §2

[4] = system: Plasmodium falciparum 7G8 (CQ, PY); test: [3H]hypoxanthine incorporation antimalarial assay, strain 7G8; assay type: cell-based
Experimental: as §1, §2

[5] = system: Plasmodium falciparum Dd2(AZ^R); test: [3H]hypoxanthine incorporation antimalarial assay, azithromycin-resistant mutant Dd2(AZ^R); assay type: cell-based
Experimental: as §1, §2

[6] = system: haem polymerization; test: Cell-free haem polymerization assay; assay type: biochemical; settings: cell‐free, N = 2
Experimental: Experiments were performed according to Tripathi, Khan, Walker, and […] ([2004]). Briefly, a solution of sodium acetate containing mono-oleoyl glycol and the corresponding inhibitor at different concentrations is placed in 1.5-ml reaction tubes. […] Multiple washing steps with Tris/SDS and bicarbonate, to remove monomeric haem and haem aggregates, allow quantification of de novo formed β-haematin.

[7] = system: H. influenzae ATCC49247; test: Antibacterial screen, broth microdilution; assay type: cell-based; settings: Haemophilus influenzae
Experimental: (§3) Antibacterial activity of compounds was determined by a standard broth microdilution method (Clinical Laboratory Standard Institute CLSI, [2009]), except that for Streptococcus strains lysed blood was substituted with 5% horse serum in the testing medium. […] The activities are expressed as minimum inhibitory concentrations (MICs) in units of μg·ml^−1. […] The organisms tested represented macrolide sensitive Gram‐positive pathogens that are mainly targeted by macrolide antibiotics. Tested streptococci were clinical isolates Streptococcus pneumoniae SP030 and Streptococcus pyogenes 3565 from internal strain collection, and other strains were obtained from ATCC bioresource centre, Staphylococcus aureus ATCC13709, Haemophilus influenzae ATCC49247, and Moraxella catarrhalis ATCC23246. Double dilutions of tested compounds were prepared using TECAN Genesis 150. Bacteria were grown on appropriate agar plates (Becton Dickinson, USA)—Columbia agar with 5% sheep blood for streptococci and M. catarrhalis, Mueller‐Hinton chocolate agar for H. influenzae , and Mueller‐Hinton agar for staphylococci.

[8] = system: S. aureus ATCC13709; test: Antibacterial screen, broth microdilution; assay type: cell-based; settings: Staphylococcus aureus
Experimental: as §3

[9] = system: S. pneumoniae SP030; test: Antibacterial screen, broth microdilution; assay type: cell-based; settings: Streptococcus pneumoniae
Experimental: as §3

[10] = system: S. pyogenes 3565; test: Antibacterial screen, broth microdilution; assay type: cell-based; settings: Streptococcus pyogenes
Experimental: as §3

[11] = Pharmacokinetics in P. falciparum infected and uninfected humanized mice; settings: for Cmax / Tmax: NODscidβ2m^−/−, mouse, whole blood, po, 12.5 mg/kg; for Cmax: C max, blood; for Cmax / Tmax / DNAUC(0–24): oral 12.5 mg·kg^−1, mean (SD); for Tmax: t max; for I/U (DNAUC infected versus uninfected): humanized mice, oral 12.5 mg·kg^−1
Experimental: For pharmacokinetic (PK) studies in mice, animals were dosed either by intravenous (i.v.) or oral (p.o.) route.
For studies performed in Swiss albino CD‐1 mice (Harlan Laboratories, Spain), in order to obtain simultaneous blood and plasma profiles and blood‐to‐plasma (B/P) ratio, PK was performed using terminal sampling of N = 3 animals per time point and data evaluated using composite analysis. For studies performed in P. falciparum infected and non‐infected NODscidβ2m^−/− mice (Charles River Laboratories, France), only whole blood was obtained by serial sampling of N = 3 animals using tail puncture.
For analysis of whole blood samples, 25 μl of fresh blood were mixed with 25 μl of saponin solution (0.1% in water) and immediately frozen on dry ice. Plasma was obtained by centrifugation of fresh blood at 2,500 g for 10 min. Both blood and plasma samples were stored frozen at −80°C until analysis.
Diluted blood and plasma samples were processed under standard liquid–liquid extraction procedures using acetonitrile containing internal standard (clarithromycin, 100 ng·ml^−1) and analysed by LC–MS/MS in positive ion mode with electrospray. Samples were assayed for parent compound using a Sciex API 4000 and Sciex API‐2000 Triple Quadrupole Mass Spectrometer (Sciex, Division of MDS Inc., Toronto, Canada), against a series of matrix matched calibration curve standards, using multiple reaction monitoring (MRM) at the specific transitions for each compound. Non‐compartmental analysis was performed using WinNonlin, version 4.1 (Pharsight, Mountain View, CA), and the main pharmacokinetic parameters were estimated.

[12] = system: HepG2 cells; settings: cited from earlier work
[13] = DD2, 48 h, read-out: IC50 Dd2 48 h
[14] = DD2, 72 h, read-out: IC50 Dd2 (CQ,Q,PY,S)
[15] = DD2, 96 h, read-out: IC50 Dd2 96 h
[16] = 7G8, 72 h, read-out: IC50 7G8 (CQ, PY)
[17] = DD2, 48 h, read-out: IC50 Dd2(AZ^R) 48 h
[18] = DD2, 96 h, read-out: IC50 Dd2(AZ^R) 96 h

Compound | IC50 [1] | Delayed death phenotype [2] | IC50 [2, 13] | IC50 [2, 14] | IC50 [2, 15] | IC50 [3] | IC50 [5, 17] | IC50 [5, 18] | IC50 [6] | MIC [7] | MIC [8] | MIC [9] | MIC [10] | Cmax ([11]; infected (I) humanized mice) | Cmax ([11]; uninfected (U) humanized mice) | Tmax ([11]; infected (I) humanized mice) | Tmax ([11]; uninfected (U) humanized mice) | I/U (DNAUC infected versus uninfected) [11] | DNAUC(0–24) ([11]; infected (I) humanized mice) | DNAUC(0–24) ([11]; uninfected (U) humanized mice) | further results
CC[C@H]1OC(=O)[C@H](C)[C@@H](O)[C@H](C)[C@@H](O[C@@H]2O[C@H](C)C[C@H](N(C)C)[C@H]2OCCCNc2ccnc3ccccc23)[C@](C)(O)C[C@@H](C)CN[C@H](C)[C@@H](O)[C@]1(C)O [Compound 3] | 20 nM | No | 24 nM | 30 nM | 22 nM | 30 nM | 27 nM | 23 nM | 5000 to 6200 nM | > 64 µg/mL | > 64 µg/mL | > 64 µg/mL | > 64 µg/mL | 348 ng/mL | 83.8 ng/mL | 1.67 h | 2.2 h | 3.9 | 354 (129) ng*h·ml^−1·mg^−1·kg^−1 | 91 (85) ng*h·ml^−1·mg^−1·kg^−1 | IC50 [4, 16]: 17 nM; Tox50 HepG2 ([12]; ref Pesic et al. ([2012])): 83 ^b μM
CC[C@H]1OC(=O)[C@H](C)[C@@H](O[C@H]2C[C@@](C)(OC)[C@@H](O)[C@H](C)O2)[C@H](C)[C@@H](O[C@@H]2O[C@H](C)C[C@H](N(C)C)[C@H]2O)[C@](C)(O)C[C@@H](C)CN(C)[C@H](C)[C@@H](O)[C@]1(C)O [Azithromycin, reference compound] |  | Yes | 3270 nM | 1590 nM | 81 nM | 15900 nM | 3360 nM | 1480 nM | > 50000 nM | 2 µg/mL (≈ 2.67 µM) | 1 µg/mL (≈ 1.34 µM) | ≤ 0.125 µg/mL | ≤ 0.125 µg/mL | 344 ng/mL | 243 ng/mL | 1 h | 1.67 h | 1.1 | 161 (7) ng*h·ml^−1·mg^−1·kg^−1 | 146 (37) ng*h·ml^−1·mg^−1·kg^−1 | IC50 ([4]; 7G8, 72 h of incubation, N = 3, read-out: IC50 7G8 (CQ, PY)): 4590 nM; Tox50 HepG2 [12]: 203 ^b μM
CC[C@H]1OC(=O)[C@H](C)[C@@H](O[C@H]2C[C@@](C)(OC)[C@@H](O)[C@H](C)O2)[C@H](C)[C@@H](O[C@@H]2O[C@H](C)C[C@H](N(C)C)[C@H]2O)[C@](C)(O)C[C@@H](C)CN(CCCNc2ccnc3cc(Cl)ccc23)[C@H](C)[C@@H](O)[C@]1(C)O [Compound 1] | 20 nM | No | 17 nM | 25 nM | 12 nM | 28 nM | 21 nM | 11 nM | 2500 to 4000 nM | 16 µg/mL (≈ 16.8 µM) | 1 µg/mL (≈ 1.05 µM) | ≤ 0.125 µg/mL | ≤ 0.125 µg/mL | 775 ng/mL | 173 ng/mL | 1 h | 0.75 h | 2.1 | 362 (68) ng*h·ml^−1·mg^−1·kg^−1 | 169 (33) ng*h·ml^−1·mg^−1·kg^−1 | IC50 [4, 16]: 37 nM; Tox50 HepG2 ([12]; ref Peric et al. ([2012])): 30 ^c μM

Source: publication PMC9328652, “A novel class of fast‐acting antimalarial agents: Substituted 15‐membered azalides” (British Journal of Pharmacology, 2020)
